In brackets after ≈: the same amount, converted by molar mass.

Experimental findings from ChEMBL document CHEMBL1138926, “New pyrrolopyrimidin-6-yl benzenesulfonamides: potent A2B adenosine receptor antagonists” (Bioorg Med Chem Lett, 2006) are described below.

The target in one series is T1, Adenosine receptor A1 (Homo sapiens, UniProt P30542).
T1 sequence (P30542 whole entry): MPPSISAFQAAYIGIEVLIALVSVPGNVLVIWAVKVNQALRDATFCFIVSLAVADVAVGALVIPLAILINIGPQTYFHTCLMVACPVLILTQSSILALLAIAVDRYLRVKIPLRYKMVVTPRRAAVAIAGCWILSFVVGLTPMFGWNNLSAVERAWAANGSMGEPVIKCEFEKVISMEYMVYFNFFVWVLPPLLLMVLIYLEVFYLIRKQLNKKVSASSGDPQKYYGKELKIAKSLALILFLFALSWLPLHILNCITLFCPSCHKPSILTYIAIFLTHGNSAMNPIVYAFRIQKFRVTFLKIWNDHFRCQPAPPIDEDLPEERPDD
In words: Displacement of [3H]DPCPX from human adenosine A1 receptor expressed in CHO cells. It counts as cell-based.

A further series has as its target T2, Adenosine receptor A3 (Homo sapiens, UniProt P0DMS8).
T2 sequence (P0DMS8 whole entry): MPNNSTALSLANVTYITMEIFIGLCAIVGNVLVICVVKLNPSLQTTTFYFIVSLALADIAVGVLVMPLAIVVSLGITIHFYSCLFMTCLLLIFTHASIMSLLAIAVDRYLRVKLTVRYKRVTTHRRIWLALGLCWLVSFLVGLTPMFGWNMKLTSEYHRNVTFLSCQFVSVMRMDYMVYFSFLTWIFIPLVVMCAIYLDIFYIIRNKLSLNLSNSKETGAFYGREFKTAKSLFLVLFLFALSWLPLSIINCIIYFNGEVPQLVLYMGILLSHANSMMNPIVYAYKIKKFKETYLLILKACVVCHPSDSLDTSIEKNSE
As to the kind of experiment: Displacement of [3H]NECA from human adenosine A3 receptor expressed in HeLa cells. Type of series: cell-based. A general note: In a radioligand displacement assay an active substance lowers the binding of a labelled ligand.

Another series has as its target T3, Adenosine receptor A2b (Homo sapiens, UniProt P29275).
T3 sequence (P29275 whole entry): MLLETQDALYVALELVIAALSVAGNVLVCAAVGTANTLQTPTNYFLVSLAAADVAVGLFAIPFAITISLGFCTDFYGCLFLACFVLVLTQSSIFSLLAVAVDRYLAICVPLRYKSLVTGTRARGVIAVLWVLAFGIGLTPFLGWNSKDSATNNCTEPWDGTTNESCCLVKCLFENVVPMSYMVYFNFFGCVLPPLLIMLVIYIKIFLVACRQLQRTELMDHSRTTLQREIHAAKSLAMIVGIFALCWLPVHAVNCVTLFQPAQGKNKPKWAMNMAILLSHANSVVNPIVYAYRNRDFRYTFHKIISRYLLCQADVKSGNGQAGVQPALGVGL
As to the kind of experiment: Displacement of [3H]DPCPX from human adenosine A2B receptor expressed in HEK293 cells. It counts as cell-based.

Series [1] concerns the target Adenosine receptors; A1 & A2b (Homo sapiens) (UniProt P30542+P29275). As to the kind of experiment: Selectivity for human adenosine A2B receptor over adenosine A1 receptor. Type of series: protein assay.
Series [2] has as its target Adenosine receptors; A2b & A3 (Homo sapiens) (UniProt P29275+P0DMS8). As to the kind of experiment: Selectivity for human adenosine A2B receptor over adenosine A3 receptor. Type of series: protein assay.
Series [3] is described as follows: Solubility at pH 1.2. It counts as physicochemical. The note with it: buffer.
A short description of series [4]: AUC in rat at 10 mg/kg, po. Type of series: ADME, organism-based. On the set-up: dose 10 mg/kg, route oral. The following applies: plasma.
Series [5] in a line: Tmax in rat at 10 mg/kg, po. It counts as ADME, organism-based. On the set-up: dose 10 mg/kg, route oral. The following applies: in vivo.
Series [6] in a line: Solubility of the compound. It counts as physicochemical.

In the case of `CCCn1c(=O)c2[nH]c(-c3ccc(S(=O)(=O)NCCc4ccccn4)cc3)cc2n(C)c1=O`, the IC50 (usually the concentration that gives 50% inhibition) at Adenosine receptor A1 turned out to be 123 nM; on Adenosine receptor A3 it was 844 nM.
As for `CCCn1c(=O)c2[nH]c(-c3ccc(S(=O)(=O)N4CCN(Cc5ccc(C#N)cc5)CC4)cc3)cc2n(C)c1=O`, the IC50 is 6 nM on Adenosine receptor A2b, 370 nM at Adenosine receptor A1 and 950 nM at Adenosine receptor A3. The Selectivity ratio in [1] was determined as 62; in [2] it was 160.
Take `CN(C1CCN(Cc2ccccc2)CC1)S(=O)(=O)c1ccc(-c2cc3c([nH]2)c(=O)n(C)c(=O)n3C)cc1`: on Adenosine receptor A2b, the IC50 was 90 nM.
At Adenosine receptor A2b, `Cn1c(=O)c2[nH]c(-c3ccc(S(=O)(=O)NC4CCN(Cc5ccccc5)CC4)cc3)cc2n(C)c1=O` displayed an IC50 of 43 nM.
For `COc1ccc(CNS(=O)(=O)c2ccc(-c3cc4c([nH]3)c(=O)n(C)c(=O)n4C)cc2)nc1`, the IC50 at Adenosine receptor A2b stood at 20 nM; on Adenosine receptor A1, 101 nM; at Adenosine receptor A3, 38000 nM.
Regarding `COc1ccc(NS(=O)(=O)c2ccc(-c3cc4c([nH]3)c(=O)n(C)c(=O)n4C)cc2)cn1`, the figures for the IC50 at Adenosine receptor A1 and on Adenosine receptor A3 were 54 nM and 1520 nM, respectively.
Turning to `CCn1c(=O)c2[nH]c(-c3ccc(S(=O)(=O)N4CCN(Cc5cccc(F)c5)CC4)cc3)cc2n(CC)c1=O`, the IC50 on Adenosine receptor A2b was 15 nM; on Adenosine receptor A1, 350 nM; at Adenosine receptor A3, 21900 nM.
On to `Cn1c(=O)c2[nH]c(-c3ccc(S(=O)(=O)N4CCN(Cc5cccc(F)c5)CC4)cc3)cc2n(C)c1=O`, for which the IC50 is 152 nM on Adenosine receptor A1 and 8890 nM at Adenosine receptor A3.
As for `Cn1c(=O)c2[nH]c(-c3ccc(S(=O)(=O)N4CCN(Cc5ccccc5)CC4)cc3)cc2n(C)c1=O`, the IC50 on Adenosine receptor A1 turned out to be 415 nM; at Adenosine receptor A3 it was 3170 nM. Also, in series [3], the solubility – broadly, the concentration that dissolves in the medium under given conditions – was found to be 70 µg/mL (≈ 142 µM). Besides, in [4], the AUC – broadly, the area under the concentration-time curve, a measure of exposure – came to 252 ng·h/mL. Also, the Tmax – broadly, the time from dosing to the highest level – in series [5] is 6 h.
As for `CCn1c(=O)c2[nH]c(-c3ccc(S(=O)(=O)NC4CCN(Cc5ccc(F)cc5)CC4)cc3)cc2n(CC)c1=O`, the IC50 at Adenosine receptor A2b was determined as 12 nM; on Adenosine receptor A1, 205 nM; on Adenosine receptor A3, 4310 nM.
For `CCCn1c(=O)c2[nH]c(-c3ccc(S(=O)(=O)NC4CCN(Cc5ccccc5)CC4)cc3)cc2n(CCC)c1=O` the same measures were 18 nM, 59 nM and 1470 nM.
Regarding `Cn1c(=O)c2[nH]c(-c3ccc(S(=O)(=O)NCCOc4ccccn4)cc3)cc2n(C)c1=O`, the IC50 at Adenosine receptor A1 came out at 396 nM; at Adenosine receptor A3 it was 6440 nM.
For the compound `Cn1c(=O)c2[nH]c(-c3ccc(S(=O)(=O)N4CCN(Cc5ccc(F)cc5)CC4)cc3)cc2n(C)c1=O`, the IC50 at Adenosine receptor A2b amounted to 10 nM.
At Adenosine receptor A2b, `Cn1c(=O)c2[nH]c(-c3ccc(S(=O)(=O)N4CCN(c5ccccc5)CC4)cc3)cc2n(C)c1=O` displayed an IC50 of 6 nM. This compound also displayed a solubility in series [6] of less than 10 µg/mL.
As to `Cn1c(=O)c2[nH]c(-c3ccc(S(=O)(=O)N4CCN(Cc5ccc(F)cc5F)CC4)cc3)cc2n(C)c1=O`, the values for the IC50 on Adenosine receptor A2b and on Adenosine receptor A1 were 7 nM and 126 nM, respectively.
As to `CCCn1c(=O)n(C)c(=O)c2[nH]c(-c3ccc(S(=O)(=O)N4CCN(Cc5ccc6c(c5)OCO6)CC4)cc3)cc21`, the IC50 at Adenosine receptor A2b came to 13 nM; on Adenosine receptor A1, 102 nM; at Adenosine receptor A3, 14900 nM.
With `CCn1c(=O)c2[nH]c(-c3ccc(S(=O)(=O)NCCc4ccccn4)cc3)cc2n(CC)c1=O`, the IC50 at Adenosine receptor A2b came out at 75 nM; at Adenosine receptor A1, 140 nM; on Adenosine receptor A3 it was 18900 nM.
For `Cn1c(=O)c2[nH]c(-c3ccc(S(=O)(=O)Nc4ccccn4)cc3)cc2n(C)c1=O`, the IC50 at Adenosine receptor A1 stood at 68 nM; on Adenosine receptor A3, 1320 nM.
The like results for `Cn1c(=O)c2[nH]c(-c3ccc(S(=O)(=O)N4CCN(Cc5ccc(Cl)s5)CC4)cc3)cc2n(C)c1=O` were, in that order, 102 nM and 5250 nM.
As for `Cn1c(=O)c2[nH]c(-c3ccc(S(=O)(=O)N4CCN(Cc5ccncc5)CC4)cc3)cc2n(C)c1=O`, the IC50 at Adenosine receptor A2b was found to be 27 nM.
With `CCCn1c(=O)c2[nH]c(-c3ccc(S(=O)(=O)NCc4ccc(OC)cn4)cc3)cc2n(C)c1=O`, the IC50 turned out to be 15 nM on Adenosine receptor A2b, 12 nM on Adenosine receptor A1 and 7600 nM at Adenosine receptor A3.
On Adenosine receptor A2b, `CCCn1c(=O)n(C)c(=O)c2[nH]c(-c3ccc(S(=O)(=O)N4CCN(Cc5cccc(F)c5)CC4)cc3)cc21` displayed an IC50 of 17 nM.
On to `Cn1c(=O)c2[nH]c(-c3ccc(S(=O)(=O)NCCc4ccccn4)cc3)cc2n(C)c1=O`, for which the IC50 came out at 150 nM at Adenosine receptor A1 and 2080 nM on Adenosine receptor A3. Further, the solubility in series [3] came to 57 µg/mL (≈ 130 µM). In series [4], this compound came in with an AUC of 985 ng·h/mL. For the same compound, the Tmax in series [5] amounted to 6 h.
Consider `Cn1c(=O)c2[nH]c(-c3ccc(S(=O)(=O)N4CCN(Cc5ccc(Br)cc5)CC4)cc3)cc2n(C)c1=O`, for which the figures for the IC50 on Adenosine receptor A2b, at Adenosine receptor A1 and at Adenosine receptor A3 were 1 nM, 183 nM and 12300 nM, respectively. Also, the Selectivity ratio in series [1] worked out at 183; in series [2], 12300.
With `Cn1c(=O)c2[nH]c(-c3ccc(OCC(=O)Nc4ccc(Br)cc4)cc3)cc2n(C)c1=O`, the solubility in [6] is less than 10 µg/mL. In [4], this compound had an AUC of less than 20 ng·h/mL.
